Measurements published in patent US10941157B2, “Pesticidal compositions and uses thereof” (Gilead Apollo, LLC, priority 2015, dated 2021).
Converted amounts (≈) assume the structure as drawn.

How the values were obtained:
Format in all cases: cell-based
Botrtyis cinerea (Bc) = assay: In vitro pathogen growth inhibition assay, Bc; conditions: 48 h, ≥90% inhibition; 48 hours vs 2% DMSO control; read-out: Compound Concentration (ppm) sufficient for ≥90% inhibition of growth, Bc
Procedure: (§1) A growth inhibition assay was conducted to determine the ability of compounds to control the growth of fungal pathogens, such as Botrtyis cinerea (Bc), Collectotrichum graminicola (Cg), Diplodia maydis (Dm), Fusarium moniliforme (Fm), Fusarium virguliforme (Fv), Phytophthora capsici (Pc), Rhizoctonia solani (Rs), and Septoria tritici (St). The compounds listed in Table 1 were each dissolved in DMSO at 2.5 mg/ml to produce compound stock solutions (“stocks”). […] Negative controls on each plate included 2% DMSO, water, and a blank (media+2% DMSO). Fungal spores were isolated from previously sub-cultured plates of Botrtyis cinerea (Bc), Collectotrichum graminicola (Cg), Diplodia maydis (Dm), Fusarium moniliforme (Fm), Fusarium virguliforme (Fv), Phytophthora capsici (Pc), and Septoria tritici (St). The isolated spores were diluted to individual concentrations with a 17% V8 liquid media. For Rhizoctonia solani (Rs), 1.5 mm mycelial plugs were used in place of spores and ¼ Potato Dextrose Broth (PDB) was used for dilution. The spore concentrations and plug sizes were based on growth curves generated at 48 hours for each pathogen. In a second 96-well plate, the spores or mycelial plugs, media, diluted compound solutions, and controls were combined. Once the compound was added, a true final concentration of compound in each well was measured by an OD600 reading, which adjusted for any compound precipitation that might have occurred in the well. Plate readings were repeated at both 24 and 48 hours. The blank negative control was used as a background subtraction. Additional visual ratings were performed at both 24 and 48 hours for checking on precipitation and confirming efficacy. […] Both tables list the concentration of each compound that was sufficient to ≥90% inhibition of growth for each of the fungal pathogens listed above. In addition, some of compounds were tested in a yeast growth inhibition assay for Saccharomyces cerevisiae (Sc). Table 2 lists the concentration of the tested compound that was sufficient to ≥75% inhibition of Saccharomyces cerevisiae (Sc).

[1] = tested on: Collectotrichum graminicola (Cg); assay: In vitro pathogen growth inhibition assay, Cg; conditions: 48 h, ≥90% inhibition; 48 hours vs 2% DMSO control; read-out: Compound Concentration (ppm) sufficient for ≥90% inhibition of growth, Cg
Procedure: as §1

Diplodia maydis (Dm) = assay: In vitro pathogen growth inhibition assay, Dm; conditions: Stenocarpella maydis, 48 h, ≥90% inhibition; 48 hours vs 2% DMSO control; read-out: Compound Concentration (ppm) sufficient for ≥90% inhibition of growth, Dm
Procedure: as §1

[2] = tested on: Fusarium moniliforme (Fm); assay: In vitro pathogen growth inhibition assay, Fm; conditions: Fusarium verticillioides; ≥90% inhibition; 48 hours vs 2% DMSO control; read-out: Compound Concentration (ppm) sufficient for ≥90% inhibition of growth, Fm
Procedure: as §1

[3] = tested on: Fusarium virguliforme (Fv); assay: In vitro pathogen growth inhibition assay, Fv; conditions: ≥90% inhibition, 48 hours vs 2% DMSO control, read-out: Compound Concentration (ppm) sufficient for ≥90% inhibition of growth, Fv
Procedure: as §1

[4] = tested on: Phytophthora capsici (Pc); assay: In vitro pathogen growth inhibition assay, Pc; conditions: 48 h, ≥90% inhibition, 48 hours vs 2% DMSO control, read-out: Compound Concentration (ppm) sufficient for ≥90% inhibition of growth, Pc
Procedure: as §1

Rhizoctonia solani (Rs) = assay: In vitro pathogen growth inhibition assay, Rs (mycelial plugs); conditions: Rhizoctonia solani, 48 h, ≥90% inhibition; mycelial plugs; 48 hours vs 2% DMSO control; read-out: Compound Concentration (ppm) sufficient for ≥90% inhibition of growth, Rs
Procedure: as §1

Septoria tritici (St) = assay: In vitro pathogen growth inhibition assay, St; conditions: Zymoseptoria tritici, 48 h, ≥90% inhibition; 48 hours vs 2% DMSO control; read-out: Compound Concentration (ppm) sufficient for ≥90% inhibition of growth, St
Procedure: as §1

SMILES | IC90 (Botrtyis cinerea (Bc)) | IC90 [1] | IC90 (Diplodia maydis (Dm)) | IC90 [2] | IC90 [3] | IC90 [4] | IC90 (Rhizoctonia solani (Rs)) | IC90 (Septoria tritici (St))
COc1ccccc1[C@H](Cn1c(=O)n(C(C)(C)C(=O)NC2CCC2)c(=O)c2c(C)c(-n3nccn3)sc21)OC1CCOCC1 [Compound I-042] | 0.4 µg/mL (≈ 0.642 µM) | ≥ 0.4 µg/mL | ≥ 0.4 µg/mL | 0.08 µg/mL (≈ 0.128 µM) | 0.4 µg/mL (≈ 0.642 µM) | ≥ 10 µg/mL | 0.08 µg/mL (≈ 0.128 µM) | ≥ 10 µg/mL
COc1ccccc1[C@H](Cn1c(=O)n(C(C)(C)C(=O)NC2CCCCC2)c(=O)c2c(C)c(-n3nccn3)sc21)OC1CCOCC1 [Compound I-043] | 0.4 µg/mL (≈ 0.615 µM) | > 2 µg/mL | 0.4 µg/mL (≈ 0.615 µM) | 0.08 µg/mL (≈ 0.123 µM) | 2 µg/mL (≈ 3.07 µM) | > 10 µg/mL | 0.4 µg/mL (≈ 0.615 µM) | > 10 µg/mL
COc1ccc(F)cc1[C@H](Cn1c(=O)n(C(C)(C)C(=O)N2CCCC2)c(=O)c2c(C)c(-n3cccn3)sc21)OC(C)C [Compound I-044] | 0.4 µg/mL (≈ 0.669 µM) | 0.4 µg/mL (≈ 0.669 µM) | 2 µg/mL (≈ 3.35 µM) | 0.08 µg/mL (≈ 0.134 µM) | 0.4 µg/mL (≈ 0.669 µM) | > 50 µg/mL | 0.4 µg/mL (≈ 0.669 µM) | > 50 µg/mL
COc1ccc(F)cc1[C@H](Cn1c(=O)n(C(C)(C)C(=O)N2CCCC2)c(=O)c2c(C)c(-n3cccn3)sc21)OC1CCOCC1 [Compound I-045] | 2 µg/mL (≈ 3.13 µM) | ≥ 0.4 µg/mL | ≥ 2 µg/mL | 0.08 µg/mL (≈ 0.125 µM) | 10 µg/mL (≈ 15.6 µM) | > 50 µg/mL | 2 µg/mL (≈ 3.13 µM) | > 50 µg/mL
COc1ccccc1[C@H](Cn1c(=O)n(C(C)(C)C(=O)N2CCCC2)c(=O)c2c(C)c(-n3cccn3)sc21)OC(C)C [Compound I-046] | 2 µg/mL (≈ 3.45 µM) | 2 µg/mL (≈ 3.45 µM) | 2 µg/mL (≈ 3.45 µM) | 0.08 µg/mL (≈ 0.138 µM) | 0.4 µg/mL (≈ 0.69 µM) | > 50 µg/mL | 0.4 µg/mL (≈ 0.69 µM) | ≥ 50 µg/mL
COc1ccccc1[C@H](Cn1c(=O)n(C(C)(C)C(=O)N2CCCCC2)c(=O)c2c(C)c(-n3cccn3)sc21)OC(C)C [Compound I-047] | 0.4 µg/mL (≈ 0.674 µM) | ≥ 2 µg/mL | 2 µg/mL (≈ 3.37 µM) | 0.08 µg/mL (≈ 0.135 µM) | 0.4 µg/mL (≈ 0.674 µM) | > 50 µg/mL | 2 µg/mL (≈ 3.37 µM) | > 50 µg/mL
COc1ccc(F)cc1[C@H](Cn1c(=O)n(C(C)(C)C(=O)NC(C)C)c(=O)c2c(C)c(-n3cccn3)sc21)OC1CCC(=O)CC1 [Compound I-048] | 0.4 µg/mL (≈ 0.625 µM) | 10 µg/mL (≈ 15.6 µM) | 2 µg/mL (≈ 3.13 µM) | 0.08 µg/mL (≈ 0.125 µM) | 2 µg/mL (≈ 3.13 µM) | > 50 µg/mL | 2 µg/mL (≈ 3.13 µM) | > 50 µg/mL
COc1ccc(F)cc1[C@H](Cn1c(=O)n(C(C)(C)C(=O)NC(C)C)c(=O)c2c(C)c(-n3cccn3)sc21)O[C@H]1CC[C@@H](O)CC1 [Compound I-049] | 0.4 µg/mL (≈ 0.623 µM) | 50 µg/mL (≈ 77.9 µM) | 2 µg/mL (≈ 3.12 µM) | 0.08 µg/mL (≈ 0.125 µM) | 2 µg/mL (≈ 3.12 µM) | > 50 µg/mL | 2 µg/mL (≈ 3.12 µM) | > 50 µg/mL
COc1ccc(F)cc1[C@H](Cn1c(=O)n(C(C)(C)C(=O)NC(C)C)c(=O)c2c(C)c(-n3nccn3)sc21)OC1CCC(=O)CC1 [Compound I-050] | 0.08 µg/mL (≈ 0.125 µM) | 2 µg/mL (≈ 3.12 µM) | ≥ 0.08 µg/mL | 0.08 µg/mL (≈ 0.125 µM) | 0.4 µg/mL (≈ 0.624 µM) | 50 µg/mL (≈ 78 µM) | 0.08 µg/mL (≈ 0.125 µM) | > 50 µg/mL
COc1ccc(F)cc1[C@H](Cn1c(=O)n(C(C)(C)C(=O)N2CCCC2)c(=O)c2c(C)c(-n3nccn3)sc21)OC1CCC(=O)CC1 [Compound I-051] | 0.4 µg/mL (≈ 0.613 µM) | 0.4 µg/mL (≈ 0.613 µM) | ≥ 0.4 µg/mL | 0.08 µg/mL (≈ 0.123 µM) | 0.4 µg/mL (≈ 0.613 µM) | > 50 µg/mL | 0.4 µg/mL (≈ 0.613 µM) | > 50 µg/mL
COc1ccc(F)cc1[C@H](Cn1c(=O)n(C(C)(C)C(=O)N2CCCCC2)c(=O)c2c(C)c(-n3nccn3)sc21)OC1CCC(=O)CC1 [Compound I-052] | 0.4 µg/mL (≈ 0.6 µM) | ≥ 0.4 µg/mL | 2 µg/mL (≈ 3 µM) | 0.08 µg/mL (≈ 0.12 µM) | 0.4 µg/mL (≈ 0.6 µM) | > 50 µg/mL | 2 µg/mL (≈ 3 µM) | > 50 µg/mL
CCO[C@@H](Cn1c(=O)n(C(C)(C)C(=O)N2CCCC2)c(=O)c2c(C)c(-n3cccn3)sc21)c1cc(F)ccc1OC [Compound I-053] | 0.4 µg/mL (≈ 0.685 µM) | 2 µg/mL (≈ 3.43 µM) | ≥ 2 µg/mL | 0.08 µg/mL (≈ 0.137 µM) | 0.4 µg/mL (≈ 0.685 µM) | > 50 µg/mL | 2 µg/mL (≈ 3.43 µM) | ≥ 50 µg/mL
CCO[C@@H](Cn1c(=O)n(C(C)(C)C(=O)NC(C)C)c(=O)c2c(C)c(-n3nccn3)sc21)c1cc(F)ccc1OC [Compound I-054] | 0.4 µg/mL (≈ 0.698 µM) | 0.4 µg/mL (≈ 0.698 µM) | 0.4 µg/mL (≈ 0.698 µM) | 0.08 µg/mL (≈ 0.14 µM) | ≥ 0.08 µg/mL | > 50 µg/mL | 0.4 µg/mL (≈ 0.698 µM) | 10 µg/mL (≈ 17.5 µM)
CCO[C@@H](Cn1c(=O)n(C(C)(C)C(=O)N2CCCC2)c(=O)c2c(C)c(-n3nccn3)sc21)c1cc(F)ccc1OC [Compound I-055] | 0.4 µg/mL (≈ 0.684 µM) | 0.08 µg/mL (≈ 0.137 µM) | ≥ 0.4 µg/mL | 0.08 µg/mL (≈ 0.137 µM) | ≥ 0.08 µg/mL | > 50 µg/mL | 0.4 µg/mL (≈ 0.684 µM) | ≥ 2 µg/mL
COc1ccc(F)cc1[C@H](Cn1c(=O)n(C(C)C(=O)N2CCCC2)c(=O)c2c(C)c(-n3nccn3)sc21)OC(C)C (stereo partly shown) [Compound I-056] | 0.4 µg/mL (≈ 0.684 µM) | 0.08 µg/mL (≈ 0.137 µM) | 0.08 µg/mL (≈ 0.137 µM) | 0.08 µg/mL (≈ 0.137 µM) | 0.24 µg/mL (≈ 0.41 µM) | 30 µg/mL (≈ 51.3 µM) | 0.24 µg/mL (≈ 0.41 µM) | 26 µg/mL (≈ 44.5 µM)
COc1ccc(F)cc1[C@H](Cn1c(=O)n([C@@H](C)C(=O)NC(C)C)c(=O)c2c(C)c(-n3nccn3)sc21)OC(C)C [Compound I-057] | 0.4 µg/mL (≈ 0.698 µM) | 0.08 µg/mL (≈ 0.14 µM) | 0.4 µg/mL (≈ 0.698 µM) | 0.08 µg/mL (≈ 0.14 µM) | 0.4 µg/mL (≈ 0.698 µM) | 50 µg/mL (≈ 87.3 µM) | 0.4 µg/mL (≈ 0.698 µM) | 50 µg/mL (≈ 87.3 µM)
COc1ccc(F)cc1[C@H](Cn1c(=O)n([C@@H](C)C(=O)N2CCCC2)c(=O)c2c(C)c(-n3nccn3)sc21)OC(C)C [Compound I-058] | 0.4 µg/mL (≈ 0.684 µM) | 0.08 µg/mL (≈ 0.137 µM) | 0.08 µg/mL (≈ 0.137 µM) | 0.08 µg/mL (≈ 0.137 µM) | 0.08 µg/mL (≈ 0.137 µM) | ≥ 10 µg/mL | 0.4 µg/mL (≈ 0.684 µM) | > 50 µg/mL
